{
  "source": "patent US20060263340A1",
  "about": "“Treating gastrointestinal diseases with modulators of retinoic acid” (priority 2005, published 2006)",
  "key": {"T cells": {"system": "T cells", "experiment": "In vivo migration of T cells activated with D1-DC pretreated with RA", "conditions": "T cells activated with D1-DC pretreated with RA for 3 days, injected into mice; average of two independent experiments (FIG. 19B)"}, "B cells": {"system": "B cells", "experiment": "In vivo homing of B cells activated with anti-IgM antibody in the presence or absence of retinoic acid", "set-up": "species or system mouse", "description": "FIG. 16 illustrates the effect of retinoic acid (RA) in the homing potential of B cells activated with an anti IgM antibody. Mouse spleen B cells are activated with an anti-IgM antibody, either with or without RA, and in the presence of non-intestinal dendritic cells (D1-DC) to improve the effector B cell viability. After 4 days in culture, naïve, B220^+ and B220^Neg (plasmablasts) effector B cells are assayed for (A) α4β7 (MFI: mean fluorescence intensity). (B) CCR9, and (C-D) migration of B cells activated in the presence or the absence of RA. […] In addition, most of the cells localizing in the small bowel mucosa are B220^Low/Neg (plasmablasts). (D) Bar graphs showing the mean±SE of 2 independent experiments. The homing indices (HI) indicate how much more (or less) B cells activated in the presence of RA migrate with respect to those activated without RA in a given tissue (HI=1 means no difference). […]\nDendritic cells treated with retinoic acid (RA) as described in FIGS. 3-6, or gut derived DC (e.g. mobilized from Peyer's patches or mesenteric lymph nodes), or RA itself (see FIG. 15) can be used to activate naive or effector/memory T and/or B cells. […] After 4-5 days, the resulting effector T and/or B cells are analyzed for their expression of gut or skin homing molecules and migratory behavior (see FIG. 16)."}},
  "data": [
    {"smiles": "CC1=C(/C=C/C(C)=C/C=C/C(C)=C/C(=O)O)C(C)(C)CCC1", "note": "[RA, retinoic acid]", "values": [
      {"measurement": "migration of T cells to the intestinal mucosa as compared to those activated with control D1-DC", "setting": "T cells", "result": 200, "unit": "times"},
      {"measurement": "migration of B cells into the small bowel lamina propria as compared to those activated without RA (homing index)", "setting": "B cells; average of 2 independent experiments (FIG. 16D)", "result": "more than 10 times"},
      {"measurement": "localization of B cells in the small bowel lamina propria as compared to B cells activated without RA", "setting": "B cells; mouse spleen B cells activated with anti-IgM with RA, in presence of D1-DC, representative homing experiment (FIG. 16C)", "result": 24, "unit": "times"}
    ]}
  ]
}
